Patent US7951928B2, “Gene encoding a protein and preventive/remedy for neurodegenerative diseases such as polyglutamine diseases by utilizing the same” (Tokyo Medical and Dental University, priority 2004, dated 2011)

Experiments:
Hela cells = assay: AMA-induced cellular death of Hela cells; format: cell-based; settings: AMA-treated Hela cells
Description: (§1) First, solutions containing three different concentrations of AMA were added to culture media of Hela cells, primary cultured cortical neurons of rat embryo (E15), and primary cultured cerebellar neurons of rat. […] The AMA-induced cellular death was significant particularly in the primary cultured neurons and their half-life period was five days or more—the primary cultured neurons died obviously earlier than those that had not been treated with AMA. […] In this AMA-induced cellular death, neuronal cell death progressed very slowly as compared with low-potassium-induced apoptosis of cerebellar neurons.
The cells were treated for 5 min with 0.4% Trypan Blue solution (Invitrogen). In each experiment, 10-20 spots were randomly selected from each of the three dishes at 100× magnification. In these spots the numbers of blue-stained cells (dead cells) and non-stained cells (living cells) were counted to a total of at least 2,000.

primary cultured neurons = assay: AMA-induced cellular death of primary cultured neurons (Trypan Blue cellular death assay); format: cell-based, rat
Description: as §1
A cerebral cortical tissue segregated from E17 Wistar rat embryo and a cerebellar tissue segregated from P7 Wistar rat novelborn were shredded with a razor, and treated with a phosphate buffered saline (hereinafter referred to as “PBS”; pH 7.5) containing 0.25% trypsin (Gibco) at 37° C. for 20 min, with gentle shaking every 5 min. Subsequently, the reaction was quenched by replacing the PBS with DMEM containing a 50% fetal bovine serum (hereinafter referred to as “FBS”), and DNaseI (Boehringer Mannheim) was added to a final concentration of 100 μg/ml. The tissues were segregated gently by pipetting with a blue tip. The cells were filtrated through a nylon mesh (FALCON, pore size: […]) by centrifuge for precipatation and resuspended in DMEM additionally containing 20 mM glucose, 16 mM sodium hydrogen carbonate, 4 mM glutamine, 25 μg/ml gentamicin and 10% FBS. The suspension was added into a polylysine-coated 24-well plate (Corning) and the cells were cultured so that each well has 3×10^5 cells. After 12 hours, cytosine arabinoside was added to the culture wells to a final concentration of […] in order to prevent glial cell proliferation. […]
The cells were treated for 5 min with 0.4% Trypan Blue solution (Invitrogen). […] In these spots the numbers of blue-stained cells (dead cells) and non-stained cells (living cells) were counted to a total of at least 2,000.

[1] = system: cell line and primary neurons; assay: Genome DNA analysis for DNA ladders after AMA treatment; format: cell-based; settings: genome DNA analysis of the cell line and primary neurons after AMA treatment
[2] = system: primary cultured cortical neurons; assay: Measurement of uptake of BrU (transcription) in AMA-treated cortical neurons; format: cell-based, rat; settings: three different concentrations of AMA
YAP = assay: Northern blotting of YAP expression after AMA; format: cell-based, rat; settings: transcription stage
Description: Next, in order to clarify the molecular mechanism underlying the OP (omega process), we performed microarray analysis. Expression of genes associated with AMA-induced cellular death of cortical neurons and cerebellar neurons and expression of genes associated with low-potassium-induced apoptosis of cerebellar neuron were compared. Experiment was performed twice for each type of cellular death. This microarray analysis led to the identification of 8 genes that offered different expression levels both in apoptosis and OP, and 11 genes that offered different expression levels specifically in OP. The latter set of genes contained YAP, a transcriptional activation factor (coactivator) which is known to play a key role in p73-mediated apoptosis.
Ten micrograms of total RNA extracted from the primary cultured neurons was electrophoresed on a MOPS/formaldehyde gel. The separated RNA fragments were transferred and immobilized to Hybond-N (Pharmacia) by UV cross-linking (exposure dose=120,000 μJ/cm^2). The full-length cDNA with the 61nt insert was cleaved from pBSins61 and purified by passing it through a gel and labeled with [a32P]dCTP (Amersham) using Random Primer DNA-labeling kit (Takara). The probes labeled with 32P were reacted with a nylon film at 60° C. and allowed to stand overnight for permeation. […]

[3] = system: primary cultured cerebellar neurons; assay: Measurement of uptake of BrU (transcription) in AMA-treated cerebellar neurons; format: cell-based, rat; settings: three different concentrations of AMA
Description: as §1
A cerebral cortical tissue segregated from E17 Wistar rat embryo and a cerebellar tissue segregated from P7 Wistar rat novelborn were shredded with a razor, and treated with a phosphate buffered saline (hereinafter referred to as “PBS”; pH 7.5) containing 0.25% trypsin (Gibco) at 37° C. for 20 min, with gentle shaking every 5 min. Subsequently, the reaction was quenched by replacing the PBS with DMEM containing a 50% fetal bovine serum (hereinafter referred to as “FBS”), and DNaseI (Boehringer Mannheim) was added to a final concentration of 100 μg/ml. The tissues were segregated gently by pipetting with a blue tip. […]

CC[C@H](C)[C@@H]1NC(=O)CNC(=O)[C@@H]2Cc3c([nH]c4cc(O)ccc34)[S+]([O-])C[C@@H](NC(=O)CNC1=O)C(=O)N[C@@H](CC(N)=O)C(=O)N1C[C@H](O)C[C@H]1C(=O)N[C@@H]([C@@H](C)[C@@H](O)CO)C(=O)N2 (stereo in doubt) [AMA, α-amanitin]
cellular death (proportion of living cells) (Hela cells): induces progressive cellular death | concentration dependence of cellular death rate (primary cultured neurons; AMA 10 μg/ml to 250 μg/ml): dependent on AMA concentration | cellular death (proportion of living cells) (primary cultured neurons; AMA-treated neurons): induces progressive cellular death | time before half the population of the neural cells died (half-life period) (primary cultured neurons; neuronal cells treated with α-amanitin): ≥ 120 h | DNA ladders [1]: no DNA ladders were observed | transcription (uptake of BrU) [2]: suppressed transcription | YAP expression (YAP): down-regulated YAP expression | transcription (uptake of BrU) [3]: suppressed transcription
